From patent US6462037B1, “1,4-benzodiazepin-2-ones useful as HIV reverse transcriptase inhibitors” (Bristol-Myers Squibb Pharma Company, priority 1999, dated 2002) come the findings set out here.

≈ marks a conversion by molar mass, not a printed value.

The melting point is the temperature, or range, at which the solid turns liquid.

Test system in the first data set: not given
Experiment: not given
Conditions: not given
Take `CCCCCCC1(C(F)(F)F)N=CC(=O)Nc2ccc(Cl)cc21` (stereo not shown) [compound 192, 7-Chloro-5-hexyl-1,5-dihydro-5-(trifluoromethyl)-1,4-benzodiazepin-2-one]: the melting point lay in the range of 115 to 120 °C.

The compound `O=C1C=NC(CCC2CC2)(C(F)(F)F)c2cc(Cl)ccc2N1` (stereo not shown) [compound 193, 7-Chloro-5-(2-cyclopropylethyl)-1,5-dihydro-5-(trifluoromethyl)-1,4-benzodiazepin-2-one] gave a melting point of 152 to 155 °C.

Turning to `CC1=NC(CCC2CC2)(C(F)(F)F)c2cc(Cl)ccc2NC1=O` (stereo not shown) [compound 194, 7-Chloro-3-methyl-5-(2-cyclopropylethyl)-1,5-dihydro-5-(trifluoromethyl)-1,4-benzodiazepin-2-one], the melting point fell in the range of 146 to 148 °C.

Consider `O=C1C=NC(C#CC2CC2)(C(F)(F)F)c2c(ccc(F)c2F)N1` (stereo not shown) [compound 195, 6,7-Difluoro-5-(2-cyclopropylethynyl)-1,5-dihydro-5-(trifluoromethyl)-1,4-benzodiazepin-2-one], for which the melting point is 185 to 187 °C.

In the case of `O=C1C=NC(CC2CC2)(C(F)(F)F)c2cc(Cl)ccc2N1` (stereo not shown) [compound 196, 7-Chloro-5-(cyclopropylmethyl)-1,5-dihydro-5-(trifluoromethyl)-1,4-benzodiazepin-2-one], the melting point is 105 to 108 °C.

As for `O=C1C=NC(CCCC(F)(F)F)(C(F)(F)F)c2cc(Cl)ccc2N1` (stereo not shown) [compound 197, 7-Chloro-5-(4,4,4-trifluorobutyl)-1,5-dihydro-5-(trifluoromethyl)-1,4-benzodiazepin-2-one], the melting point fell in the range of 178 to 180 °C.

The compound `COc1ccc2c(c1)C(C#CC1CC1)(C(F)(F)F)N=CC(=O)N2` (stereo not shown) [compound 198, 7-Methoxy-5-(cyclopropylethynyl)-1,5-dihydro-5-(trifluoromethyl)-1,4-benzodiazepin-2-one] registered a melting point of 145 to 146 °C.

In turn, `O=C1C=NC(C#CC2CC2)(C(F)(F)F)c2cc(F)ccc2N1` (stereo not shown) [compound 199, 7-Fluoro-5-(cyclopropylethynyl)-1,5-dihydro-5-(trifluoromethyl)-1,4-benzodiazepin-2-one] yielded a melting point of 175 to 178 °C.

Consider `O=C1C=NC(/C=C\C2CC2)(C(F)(F)F)c2cc(F)ccc2N1` (stereo not shown) [compound 200, 7-Fluoro-5-(2-cyclopropyl-Z-ethenyl)-1,5-dihydro-5-(trifluoromethyl)-1,4-benzodiazepin-2-one], for which the melting point lay within 158 to 160 °C.

Regarding `O=C1C=NC(CCC(F)(F)F)(C(F)(F)F)c2c(ccc(F)c2F)N1` (stereo not shown) [compound 201, 6,7-Difluoro-5-(3,3,3-trifluoropropyl)-1,5-dihydro-5-(trifluoromethyl)-1,4-benzodiazepin-2-one], the melting point fell in the range of 160 to 163 °C.

With `O=C1C=NC(Cc2ccccn2)(C(F)(F)F)c2cc(Cl)ccc2N1` (stereo not shown) [compound 202, 7-Chloro-5-(2-pyridylmethyl)-1,5-dihydro-5-(trifluoromethyl)-1,4-benzodiazepin-2-one], the melting point was 137 to 140 °C.

In turn, `CCCCC1(C(F)(F)F)N=CC(=O)Nc2ccc(Cl)cc21` (stereo not shown) [compound 203, 7-Chloro-5-butyl-1,5-dihydro-5-(trifluoromethyl)-1,4-benzodiazepin-2-one] returned a melting point of 174 to 176 °C.

A further data set deals with HIV-1 (RF). The data set is described as follows: HIV RNA assay: microplate based compound evaluation in HIV-1 infected MT-2 cells. It is filed as cell-based. The settings on record: Human immunodeficiency virus 1, MT2, 72 h; HIV-1 (RF) infected MT-2 cells, 3 days of culture; virus inoculum standardised to this value; read-out: IC90 value (concentration of compound required to reduce the HIV RNA level by 90%). The method, then:
MT-2 and MT-4 cells were maintained in RPMI 1640 supplemented with 5% fetal calf serum (FCS) for MT-2 cells or 10% FCS for MT-4 cells, 2 mM L-glutamine and 50 μg/mL gentamycin, all from Gibco. HIV-1 RF was propagated in MT-4 cells in the same medium. Virus stocks were prepared approximately 10 days after acute infection of MT-4 cells and stored as aliquots at −70° C. Infectious titers of HIV-1 (RF) stocks were 1-3×10^7 PFU (plaque forming units)/mL as measured by plaque assay on MT-2 cells (see below). Each aliquot of virus stock used for infection was thawed only once.
For evaluation of antiviral efficacy, cells to be infected were subcultured one day prior to infection. […]
Cell lysates or purified RNA in 3 M or 5 M GED were mixed with 5 M GED and capture probe to a final guanidinium isothiocyanate concentration of 3 M and a final biotin oligonucleotide concentration of 30 nM. […] Immobilized alkaline phosphatase activity was detected by addition of 100 μL of 0.2 mM 4-methylumbelliferyl phosphate (MUBP, JBL Scientific) in buffer δ (2.5 M diethanolamine pH 8.9 (JBL Scientific), 10 mM MgCl2, 5 mM zinc acetate dihydrate and 5 mM N-hydroxyethyl-ethylene-diamine-triacetic acid). […] Fluorescence at […] was measured using a microplate fluorometer (Dynateck) exciting at […]. […]
In the case of `Nc1ccn([C@H]2CC[C@@H](CO)O2)c(=O)n1` [ddC, 2′,3′-dideoxycytidine], the IC90 is 0.2 µg/mL (≈ 0.947 µM).
